What was measured:
[1] = test system: mammalian cells; test: Mitotic disruption by peptide panel in mammalian studies; assay type: cell-based; conditions: deletion mutant and synthetic fusion peptides
From the text: Similar mitotic disruption is observed using a large panel of lunasin and alisin deletion mutant peptides (lunasin-del-n and alisin-del-n) and lunasin/alisin-like synthetic peptides (Gm2S-1-syn-n). Exemplary active lunasin-del peptides in these mammalian studies include (again using N→C nomenclature convention): • lunasin-del-1: MRG—residues 57-64 of SEQ ID NO:2 fusion protein • lunasin-del-2: α-tubulin—residues 54-64 of SEQ ID NO:2 fusion protein • lunasin-del-3: β-tubulin—residues 48-63 of SEQ ID NO:2 fusion protein • lunasin-del-4: MAP2 —residues 26-64 of SEQ ID NO:2 fusion protein • lunasin-del-5: Mapmodulin—residues 57-64 of SEQ ID NO:2 fusion protein • lunasin-del-6: GFP—residues 54-64 of SEQ ID NO:2 fusion protein • lunasin-del-7: MAP4—residues 44-63 of SEQ ID NO:2 fusion protein • lunasin-del-8: FLAGG—residues 30-64 of SEQ ID NO:2 fusion protein • lunasin-del-9: CYCLIN A—residues 57-64 of SEQ ID NO:2 fusion protein • lunasin-del-10: CYCLIN B1—residues 54-64 of SEQ ID NO:2 fusion protein • lunasin-del-11: CYCLIN B2—residues 40-63 of SEQ ID NO:2 fusion protein • lunasin-del-12: CYCLIN B3—residues 34-64 of SEQ ID NO:2 fusion protein • lunasin-del-13: SH2—octa-aspartate fusion protein • lunasin-del-14: SH3—octa-aspartate fusion protein • lunasin-del-15: SEQ ID NO:2, residues 48-55—MRG-octa-aspartate fusion protein • lunasin-del-16: SEQ ID NO:2, residues 48-55—SEQ ID NO:2, residues 48-55—octa-aspartate fusion protein • lunasin-del-17: MRG-tetrta-aspartate-tetra glutamate fusion protein • lunasin-del-18: SEQ ID NO:2, residues 48-55-octa-glutamate fusion protein • lunasin-del-19: SEQ ID NO:2, residues 1-21-MRG-deca-glutamate fusion protein • lunasin-del-20: SEQ ID NO:2, residues 48-55—SEQ ID NO:2, residues 48-55—tetra-aspartate-tetra glutamate fusion protein
Alternatively, the peptides are introduced indirectly by expression within the targeted cell. Such expression may be effected by transciently or by upregulation of a stably introduced peptide-encoding gene.

[2] = test system: cotyledon and endosperm parynchematous cells; test: Plant transformation: mitotic disruption in developing seeds; assay type: in vivo; conditions: deletion mutant and synthetic fusion peptides
From the text: Cereal endosperm and legume cotyledon make up at least 85% of the seed weight and that seed size is genetically correlated to crop yield by at least 80%. […] To accomplish this, the 5′ regulatory regions of soybean conglycinin gene (a 170 bp DNA sequence element that is 200 nucleotides upstream of the transcription start site conferring cotyledon-specific expression (Chen et al., 1988, EMBO J 7:297) and rice glutelin gene (a 121 bp DNA sequence element that is 437/317 nucleotide upstream of the transcription start site conferring endosperm-specific expression (Yoshihara and Takaiwa, 1996, Plant Cell Physiol 37:107) are inserted into the −90 position of the CaMV 35S promoter which are then fused to the DNA fragments encoding the in-frame translation of lunasin and lunasin-del peptides. The DNA constructs are ligated to the binary vector, pKYLX71 (Lloyd et al., 1992, Science 258:1773) for Agrobacterium transformation and to pGEM-3Zf(+) vector (Promega) for biolistic transformation (Cho et al., 1995, Plant Mol Biol Rept 13:255). Agrobacterium-mediated transformation using the cotyledon-specific DNA constructs is utilized for most dicots, i.e. legumes (soybean, peas, peanuts and kidney beans), Arabidopsis thaliana and tobacco. For monocots like the cereal grain crops, wheat, rice, barley, rye and corn, the biolistic method of transformation is utilized using the endosperm-specific DNA constructs. The expression of the lunasin peptide in the developing seeds of all these plant species are monitored by immunolocalization using antibodies derived specifically to the carboxyl end epitope of the lunasin peptide.

[3] = test system: DH5 E. coli cells; test: Expression of Gm2S-1 peptides in bacteria: disruption of bacterial cell division (filamentation); assay type: cell-based; conditions: basal expression from pFLAG-1 in DH5 E. coli cells
From the text: We sought to produce purified Gm2S-1-derived peptides, including lunasin and alisin peptides, for allergenicity tests using bacterial expression vectors. Initially, PCR amplified fragments that encode lunasin and a lunasin deletion (lunasin-del) mutant (with the 9 aspartic acid deleted from the carboxyl end) were first cloned into pGEM-T (Promega) PCR cloning vector, then cut with EcoR1 and HindIII to release lunasin and lunasin-del gene fragment which were then subcloned into pFLAG-1 bacterial expression vector (Kodak/IBI). Lunasin and lunasin-del pFLAG constructs were used to transform competent DH5 E. coli cells using standard heat shock protocol.
Similar mitotic disruption is observed using a large panel of lunasin and alisin deletion mutant peptides (lunasin-del-n and alisin-del-n) and lunasin/alisin-like synthetic peptides (Gm2S-1-syn-n). […]

## lunasin-del-15: SEQ ID NO:2, residues 48-55—MRG-octa-aspartate fusion protein (MEKIQGRG; C-terminal MRG and octa-aspartate)
[1]
  mitotic disruption, active peptides in mammalian studies: active
[2]
  mitotic disruption, active peptides in plant transformation studies: active

## lunasin-del-18: SEQ ID NO:2, residues 48-55—octa-glutamate fusion protein (MEKIQGRG; C-terminal octa-glutamate)
[1]
  mitotic disruption, active peptides in mammalian studies: active
[2]
  mitotic disruption, active peptides in plant transformation studies: active

## lunasin-del-19: SEQ ID NO:2, residues 1-21—MRG-deca-glutamate fusion protein (MTKFTILLISLLFCIAHTCSA; C-terminal MRG and deca-glutamate)
[1]
  mitotic disruption, active peptides in mammalian studies: active
[2]
  mitotic disruption, active peptides in plant transformation studies: active

B1: large subunit peptide: 77 amino acid (8 kDa) large subunit (alisin) of Gm2S-1, residues 82-158 of SEQ ID NO:2 (protein)
chain: EGKDEDEEEEGHMQKCCTEMSELRSPKCQCKALQKIMENQSEELEEKQKKKMEKELINLATMCRFGPMIQCDLSSDD
[3]
  formation of elongated and non-septated bacterial filaments: not detected
